What was measured:
[1] = target: T1, coconut LPAAT (Cocos nucifera, UniProt Q42670); test: LPAAT activity assay, coconut P2 membrane preparation; format: biochemical; parameters: white endosperm tissue lining the inside of the endocarp can be dissected and collected; from tissue; host or cells: immature coconut endosperm, P2 membrane fraction
T1 sequence (Q42670 1-308): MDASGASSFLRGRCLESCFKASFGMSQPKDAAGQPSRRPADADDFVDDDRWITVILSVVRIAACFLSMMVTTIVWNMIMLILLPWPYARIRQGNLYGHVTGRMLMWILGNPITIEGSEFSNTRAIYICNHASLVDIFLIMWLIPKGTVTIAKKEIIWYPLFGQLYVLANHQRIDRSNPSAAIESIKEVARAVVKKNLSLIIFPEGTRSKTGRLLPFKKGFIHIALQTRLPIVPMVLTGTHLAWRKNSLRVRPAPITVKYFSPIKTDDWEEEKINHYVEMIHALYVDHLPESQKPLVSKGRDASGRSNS
Description: (§1) To assay for LPAAT activity, the sample is incubated with lysophosphatidic acid (LPA) and acyl-coenzyme A (acyl-CoA) substrates in buffered solution. The acyl substituents of the two substrates are chosen to correspond with the specificity of the enzyme being measured. For example, to measure activity of an LPAAT having preference for medium-chain substrates, lauroyl-LPA (lauroyl-lysophosphatidic acid) and lauroyl-CoA may be used, to measure activity of an LPAAT preferring longer-chain acyl groups, oleoyl-LPA and oleoyl-CoA may be used, to measure activity of an LPAAT preferring very-long chain substrate, erucyl-LPA and erucyl-CoA may be used, and so on, depending upon the type of LPAAT to be tested. The acyl group of one substrate is radioactively labeled in order to detect the product formed. In the examples which follow the acyl substituent of the acyl-CoA substrate is radiolabeled with ^14 C in the carboxyl group. LPAAT activity results in transfer of this acyl group from the acyl-CoA "donor" substrate to the LPA "acceptor" substrate, converting the latter into the product, phosphatidic acid (PA). LPAAT activity is measured as the amount of radioactive product formed in a given assay time. The PA product is radioactive as a result of the transferred radiolabeled acyl group at the central carbon atom of the molecule, and the quantity of PA formed may be determined by measuring radioactivity of the PA fraction. For this measurement, the PA is first separated from the acyl-CoA substrate by solvent partitioning, or by thin-layer chromatography (TLC).
(§2) 20 μl of the sample to be assayed for LPAAT activity is mixed with 217.5 μl of an assay ingredient mixture in a 4-ml, screw-cap vial. […] The incubation takes place in a water bath at 30° C., for 20-30 minutes.
(§3) To stop the assay, 0.25 ml of 1M KCl in 0.2M H3 PO4 is added to the vial. At this point, 40 μl BSA (bovine serum albumin, fraction V) at 1 mg/ml are added, followed by 0.75 ml of a solution of 67 μg/ml unlabeled PA (acting as a "carrier" to facilitate partitioning) in chloroform/methanol (2:1, v/v). The chain lengths of the PA acyl groups are chosen to correspond to those used in the assay substrates. Upon thorough mixing of these components the radiolabeled PA product of the LPAAT reaction partitions into the organic phase and away from the unreacted acyl-CoA and LPA. The vial is centrifuged briefly at low speed to facilitate the separation of organic (lower) and aqueous (upper) phases. The aqueous phase is then removed and discarded. The total radioactivity extracted into the organic phase is determined by liquid scintillation counting; a 100 μl sample of the organic phase is transferred to a 20 ml scintillation vial and allowed to dry, and scintillation fluid (3-5 ml) is added to the vial. The radioactivity of the sample, after subtraction of the "minus-enzyme" or "minus-LPA" radioactivities, is taken as an approximate indication of the amount of PA formed in the LPAAT-catalyzed reaction and therefore of LPAAT activity.
A more accurate estimation of the LPAAT activity may be obtained by separating the PA product from these contaminants by TLC. The remaining organic phase is applied to a silica TLC plate. Ascending chromatography is carried out for 50 minutes, using the solvent mixture chloroform/pyridine/88% formic acid (50:30:7, v/v). After the plate has dried, the distribution of radioactivity is visualized and quantitated using an AMBIS radioanalytic imaging system (AMBIS Systems Inc., San Diego, Calif.). From prior application of standard lipid components the Rf of the PA is known. The radioactivity associated with the PA spot is expressed as a percentage of the total radioactivity of the assay sample loaded on the plate. This ratio provides an indication of the proportion of the scintillation counts which represent the PA product, and may be used to correct the counts to obtain the total PA radioactivity formed in the assay. […]

[2] = tested on: coconut LPAAT; test: as above; format: biochemical, Cocos nucifera; conditions: coconut P2 preparation, same assay
Description: To assay for LPAAT activity, the sample is incubated with lysophosphatidic acid (LPA) and acyl-coenzyme A (acyl-CoA) substrates in buffered solution. The acyl substituents of the two substrates are chosen to correspond with the specificity of the enzyme being measured. […] LPAAT activity is measured as the amount of radioactive product formed in a given assay time. The PA product is radioactive as a result of the transferred radiolabeled acyl group at the central carbon atom of the molecule, and the quantity of PA formed may be determined by measuring radioactivity of the PA fraction. […]
To stop the assay, 0.25 ml of 1M KCl in 0.2M H3 PO4 is added to the vial. […] The total radioactivity extracted into the organic phase is determined by liquid scintillation counting; a 100 μl sample of the organic phase is transferred to a 20 ml scintillation vial and allowed to dry, and scintillation fluid (3-5 ml) is added to the vial. The radioactivity of the sample, after subtraction of the "minus-enzyme" or "minus-LPA" radioactivities, is taken as an approximate indication of the amount of PA formed in the LPAAT-catalyzed reaction and therefore of LPAAT activity. […]

[3] = tested on: LPCAT; test: LPCAT assay, coconut P2 preparation; format: biochemical, Cocos nucifera; conditions: substrates 12:0-CoA+12:0-LPC
Text: Lysophosphatidylcholine (LPC) acyltransferase (LPCAT) is an enzyme analogous to LPAAT, involved in the biosynthesis of membrane lipids (phosphatidylcholine and derivatives thereof) instead of storage oil. The possibility that the activity measured in the LPAAT assay is not true LPAAT, but rather an inefficient action of LPCAT on the LPAAT substrates, can be tested by direct assay for LPCAT. For example, the LPAAT activity of the coconut P2 preparation with the substrate combination 12:0-CoA+12:0-LPA is readily measurable, whereas the LPCAT activity of the same preparation with the substrates 12:0-CoA+12:0-LPC is undetectable. […] The activities on long-chain substrates may represent either a single acyltransferase enzyme able to use LPA and LPC acceptor substrates, or discrete "long-chain" LPAAT and LPCAT enzymes which are present together.

[4] = tested on: bay LPAAT; test: LPAAT activity assay, California bay P2 membrane preparation; format: biochemical, Umbellularia californica; conditions: P2 membrane preparation; acyl-CoA donor varied, acceptor 12:0-LPA
Description: To assay for LPAAT activity, the sample is incubated with lysophosphatidic acid (LPA) and acyl-coenzyme A (acyl-CoA) substrates in buffered solution. The acyl substituents of the two substrates are chosen to correspond with the specificity of the enzyme being measured. […] The acyl group of one substrate is radioactively labeled in order to detect the product formed. In the examples which follow the acyl substituent of the acyl-CoA substrate is radiolabeled with ^14 C in the carboxyl group. LPAAT activity results in transfer of this acyl group from the acyl-CoA "donor" substrate to the LPA "acceptor" substrate, converting the latter into the product, phosphatidic acid (PA). LPAAT activity is measured as the amount of radioactive product formed in a given assay time. The PA product is radioactive as a result of the transferred radiolabeled acyl group at the central carbon atom of the molecule, and the quantity of PA formed may be determined by measuring radioactivity of the PA fraction. For this measurement, the PA is first separated from the acyl-CoA substrate by solvent partitioning, or by thin-layer chromatography (TLC).

[5] = target: T1, coconut LPAAT; test: Acyl-CoA specificity of coconut LPAAT expressed in E. coli (pCGN5505), membrane fractions; format: biochemical; parameters: the SalI/BamHI fragment of pCGN5504 containing the entire coconut LPAAT encoding region; made in house; host or cells: E. coli BL21(DE3), membrane fractions; conditions: acceptor 12:0-LPA
Description: The samples are centrifuged at 12,000 g for 15 minutes. The resulting supernatant fractions are centrifuged for two hours at 134,000 g, and the pelleted membranes suspended in 50 mM HEPES, 200 mM NaCl, 20% (w/v) glycerol, 5 mM β-mercaptoethanol, pH 7.5. Membrane fractions are assayed for acyl-CoA substrate specificities with 12:0-LPA and various acyl-CoA species as described in Example 1. Membrane preparations from cultures of E. coli and from immature coconut endosperm are combined with soybean phospholipids and diluted in 1M NaCl in Buffer A to simulate the pre-assay conditions of the solubilized enzyme.

[6] = tested on: Rapeseed LPAAT; test: LPAAT activity assay, rapeseed P2 membrane preparation; format: biochemical, Brassica napus; conditions: acyl-CoA donor varied, acceptor 12:0-LPA
Description: as §1, §2, §3
A more accurate estimation of the LPAAT activity may be obtained by separating the PA product from these contaminants by TLC. The remaining organic phase is applied to a silica TLC plate. […] After the plate has dried, the distribution of radioactivity is visualized and quantitated using an AMBIS radioanalytic imaging system (AMBIS Systems Inc., San Diego, Calif.). From prior application of standard lipid components the Rf of the PA is known. The radioactivity associated with the PA spot is expressed as a percentage of the total radioactivity of the assay sample loaded on the plate. This ratio provides an indication of the proportion of the scintillation counts which represent the PA product, and may be used to correct the counts to obtain the total PA radioactivity formed in the assay.
A P2 membrane homogenate from immature embryos of developing rapeseed (Brassica napus) seeds is prepared essentially as described above, except as noted below.

[7] = tested on: control rapeseed LPAAT; test: LPAAT acyl-CoA specificity, control P2 preparation; format: biochemical; conditions: acyl-CoA donor varied at 5 μM, acceptor 12:0-LPA; 30 minute reaction
Description: (§4) Detailed acyl-CoA chain-length specificity analysis of control P2 preparations and LPAAT-transformed line 5511-5 were determined as described above, using the original 30 minute reaction time. The acyl-CoA substrates for this analysis are present in methanol, and thus the assay also had the following modifications. The first solution placed in the assay vial was the volume of each radiolabeled acyl-CoA required for 5 μM final assay concentration. […] After mixing to redissolve the acyl-CoA off the vial wall, the reaction is started by addition of 25 μl of a 5-fold diluted P2 preparation and continued as before. Acyl-CoA substrates used in this analysis were 8:0, 10:0, 12:0, 14:0, 16:0, 18:0, and 18:1. The acceptor substrate in these assays was 12:0-LPA.

[8] = target: T2, LPAAT of transformant 5511-5 (Cocos nucifera, UniProt Q42670); test: LPAAT acyl-CoA specificity, P2 preparation of LPAAT-transformed line 5511-5; format: biochemical, Rapeseed; conditions: acyl-CoA donor varied at 5 μM, acceptor 12:0-LPA; 30 minute reaction
T2 construct: crude P2 membranes, host LPAAT also present
T2 sequence (Q42670 1-308): T1 sequence (Q42670 1-308)
Description: as §4

Question: What does the source list for “12:0-ACP: 12:0 acyl-ACP tested as LPAAT donor substrate”?
Answer: utilization as LPAAT donor substrate instead of 12:0-CoA ([1]; coconut P2 preparation): will not utilize; hydrolysis by the P2 preparation [2]: not hydrolyzed

Question: With CCCCCCCCCCCC(=O)OCC(O)COP(=O)([O-])OCC[N+](C)(C)C (stereo not drawn) [12:0-LPC, lauroyl-lysophosphatidylcholine] as the compound, how does the LPCAT activity [3] read?
Answer: undetectable

Question: How did the “LPAAT Activity from Bay” value [4] turn out when CCCCCCCCCCCCCCCCCC(=O)SCCNC(=O)CCNC(=O)[C@H](O)C(C)(C)COP(=O)(O)OP(=O)(O)OC[C@H]1O[C@@H](n2cnc3c(N)ncnc32)[C@H](O)[C@@H]1OP(=O)(O)O [18:0] was run?
Answer: 6 pmol PA formed/30 min assay

Question: What about the “utilization by E. coli expressed coconut LPAAT” value [5] of the same compound?
Answer: less well utilized

Question: What about the “LPAAT Activity from Rapeseed” value [6] of the same compound?
Answer: 21 pmol PA formed/30 min assay

Question: And the “LPAAT Activity from Coconut” value ([1]; P2 membrane preparation, acyl-CoA donor varied, acceptor 12:0-LPA)?
Answer: 13 pmol PA formed/30 min assay

Question: What about the “Cpm PA Product, Control” value [7] of the same compound?
Answer: 1514 Cpm

Question: What about the “Cpm PA Product, 5511-5” value [8] of the same compound?
Answer: 2038 Cpm

— patent US5968791A, “Plant lysophosphatidic acid acyltransferases” (Calgene, Inc., priority 1995, dated 1999)
